The first assay has as its system TDP-43 aggregation in PC12 cells stably expressing TDP-43^Q331K::eGFP. The assay can be described thus: In vitro efficacy assay, TDP-43 aggregation concentration-response. Conditions: Rattus norvegicus, PC-12, inhibition of TDP-43 aggregation; PC12 TDP-43^Q331K::eGFP, 1 hour pre-treatment, 15 μM sodium arsenite for 23 hours; 10-point dose response. It is filed as cell-based. The method, then:
Exemplary compounds of the invention were evaluated for efficacy in inhibiting TDP-43 inclusions using a concentration-response assay. Briefly, PC12 cells stably expressing a GFP-tagged mutant form of TDP-43 (TDP-43^Q331K::eGFP) were pre-treated for 1 hour with exemplary compounds and stressed with 15 μM sodium arsenite for 23 hours to induce TDP-43 aggregation. The inhibitory effect on TDP-43 aggregation was measured using fluorescence microscopy. The ratio of cells with TDP-43 aggregates was calculated based on the total number of cells with detectable GFP expression.
As usually defined, the IC50 is the concentration needed to halve the response being measured. As for `CCN(CC1CCN(Cc2cccc(OC(F)F)c2)CC1)C(=O)c1cc2cc(OC(F)F)ccc2[nH]1` [compound 310], the IC50 was in the range of 4 to 7 µM.
On the same count and under the same terms, in the case of `CCN(CC1CCCNC1)C(=O)c1cc2c(OC)cccc2[nH]1` (stereo not drawn) [compound 422] it was above 10 µM.
On the same count and under the same terms, in the case of `CCN(CC1CCNCC1)C(=O)c1cc2cc(OC(F)(F)F)ccc2[nH]1` [compound 401] it was 4 to 7 µM; in that of `CCN(CC1CCCN(CCc2ccc3c(c2)OCO3)C1)C(=O)c1cc2ccccc2[nH]1` (stereo not drawn) [Compound 146], 1.5 to 4 µM; in that of `CCN(CC1CCCN(C(C)(C)c2ccc(OC)cc2)C1)C(=O)c1cc2cc(OC)ccc2[nH]1` (stereo not drawn) [Compound 356], below 1.5 µM.
Still for that read-out and setting: in the case of `CN(CC1CCN(Cc2cccc(F)c2)CC1)C(=O)c1cc2ccccc2[nH]1` [compound 255] it was above 10 µM; in that of `CC(C)N(CC1CCN(Cc2cccc(Cl)c2)CC1)C(=O)c1cc2ccccc2[nH]1` [compound 278], 4 to 7 µM; in that of `CCN(CC1CCCN(Cc2ccccc2Cl)C1)C(=O)c1cc2ccccc2[nH]1` (stereo not drawn) [Compound 129], above 10 µM.
Regarding `CC(C)N(CC1CCN(Cc2ccccc2F)CC1)C(=O)c1cc2ccccc2[nH]1` [compound 280], the IC50 was above 10 µM.
The same measure, in the same setting: in the case of `CN(CC1CCN(Cc2ccccc2Cl)CC1)C(=O)c1cc2ccccc2[nH]1` [compound 259] it was above 10 µM; in that of `CCN(CC1CCCN(Cc2ccc(OC)cc2)C1)C(=O)c1cc2cc(F)c(F)cc2[nH]1` (stereo not drawn) [Compound 171], below 1.5 µM; in that of `COc1ccc(CN2CCC(CN(C(=O)c3cc4ccccc4[nH]3)C(C)C)CC2)cc1` [compound 265], below 1.5 µM.
Same read-out and setting: in the case of `CCN(CC1CCCN(Cc2ccc(OC)cc2)C1)C(=O)c1cc2ccc(OC)cc2[nH]1` (stereo not drawn) [Compound 162] it was 1.5 to 4 µM; in that of `CCN(CC1CCN(C(C)(C)Cc2cccc(F)c2)CC1)C(=O)c1cc2ccccc2[nH]1` [Compound 330], below 1.5 µM.
For the compound `CCN(CC1CCCN(CCc2cccc(OC(F)F)c2)C1)C(=O)c1cc2cc(OC(F)F)ccc2[nH]1` (stereo not drawn) [Compound 180], the IC50 was above 10 µM.
Regarding `CCN(CC1CCCN(Cc2ccc(Cl)cc2)C1)C(=O)c1cc2ccc(Cl)cc2[nH]1` (stereo not drawn) [Compound 164], the IC50 was 1.5 to 4 µM.
For `O=C(NCC1CCN(Cc2cccc(F)c2)CC1)c1cc2ccccc2[nH]1` [compound 270], the IC50 was above 10 µM.
Regarding `CC(C)N(CC1CCN(Cc2cccc(F)c2)CC1)C(=O)c1cc2ccccc2[nH]1` [compound 277], the IC50 was above 10 µM.
Same read-out and setting: in the case of `CCN(CC1CCN(C(C)(C)c2ccc(OC)cc2)CC1)C(=O)c1cc2ccccc2[nH]1` [Compound 358] it was below 1.5 µM.
Same read-out and setting: in the case of `CCN(CC1CCN(C(C)(C)Cc2ccccc2)CC1)C(=O)c1cc2ccccc2[nH]1` [Compound 333] it was above 10 µM; in that of `CCN(CC1CCCN(Cc2ccc(Cl)cc2)C1)C(=O)c1cc2ccccc2[nH]1` (stereo not drawn) [Compound 138], below 1.5 µM.
Consider `CCN(CC1CCCN(c2cccc(OC)c2)C1)C(=O)c1cc2ccccc2[nH]1` (stereo not drawn) [Compound 228], for which the IC50 was above 10 µM.
The same measure, in the same setting: in the case of `CCN(CC1CCCN(CCc2cc3ccccc3o2)C1)C(=O)c1cc2ccccc2[nH]1` (stereo not drawn) [Compound 181] it was 7 to 9.9 µM; in that of `CCN(CC1CCCN(CCc2cccc(OC)c2)C1)C(=O)c1ccc2ccccc2c1` (stereo not drawn) [Compound 237], 1.5 to 4 µM.
The same measure, in the same setting: in the case of `CCN(CC1CCCN(CC(C)(C)c2cccc(OC)c2)C1)C(=O)c1cc2cc(OC)ccc2[nH]1` (stereo not drawn) [Compound 406] it was below 1.5 µM.
Still for that read-out and setting: in the case of `CCN(CC1CCN(Cc2ccc(OC(F)(F)F)cc2)CC1)C(=O)c1cc2cc(OC(F)(F)F)ccc2[nH]1` [compound 309] it was above 10 µM; in that of `CCN(CC1CCCN(Cc2ccc(Cl)cc2)C1)C(=O)c1cc2ccc(OC)cc2[nH]1` (stereo not drawn) [Compound 159], 1.5 to 4 µM.
Regarding `CCN(CC1CCCN(CCc2ccccc2)C1)C(=O)c1cc2ccccc2[nH]1` (stereo not drawn) [Compound 216], the IC50 lay in the range of 1.5 to 4 µM.
Consider `CCN(CC1CCCNC1)C(=O)c1cc2cc(OC(F)(F)F)ccc2[nH]1` (stereo not drawn) [compound 426], for which the IC50 is above 10 µM.
Turning to `CCN(CC1CCN(Cc2ccc(Cl)cc2)CC1)C(=O)c1cc2cc(OC)ccc2[nH]1` [compound 403], the IC50 fell in the range of 1.5 to 4 µM.
The same measure, in the same setting: in the case of `CCN(CC1CCN(C(C)(C)Cc2cc3ccccc3o2)CC1)C(=O)c1cc2ccccc2[nH]1` [Compound 339] it was below 1.5 µM; in that of `CCN(CC1CCCNC1)C(=O)c1cc2cccc(F)c2[nH]1` (stereo not drawn) [compound 418], above 10 µM.
Still for that read-out and setting: in the case of `CC(C)(Cc1cccc(F)c1)N1CCC(CN(CC(F)(F)F)C(=O)c2cc3ccccc3[nH]2)CC1` [Compound 353] it was below 1.5 µM; in that of `CCN(CC1CCCN(Cc2cccc(C#N)c2)C1)C(=O)c1cc2ccccc2[nH]1` (stereo not drawn) [Compound 133], 1.5 to 4 µM; in that of `CCN(CC1CCCN(Cc2ccc(OC)cc2)C1)C(=O)c1cc2c(F)cccc2[nH]1` (stereo not drawn) [Compound 166], above 10 µM.
Regarding `CCN(CC1CCCN(Cc2ccc(OC)cc2)C1)C(=O)c1cc2cc(F)ccc2[nH]1` (stereo not drawn) [Compound 151], the IC50 is below 1.5 µM.
For `CCN(CC1CCCN(Cc2ccc(OC)cc2)C1)C(=O)c1cc2cc(OC)ccc2[nH]1` (stereo not drawn) [Compound 149], the IC50 was below 1.5 µM.
The same measure, in the same setting: in the case of `O=C(NCC1CCNCC1)c1cc2ccccc2[nH]1` [Compound 264] it was 1.5 to 4 µM.
Turning to `CCN(CC1CCN(Cc2ccccc2OC)CC1)C(=O)c1cc2ccccc2[nH]1` [compound 287], the IC50 was in the range of 4 to 7 µM.
On the same count and under the same terms, in the case of `CN(CC1CCNCC1)C(=O)c1cc2ccccc2[nH]1` [compound 254] it was above 10 µM; in that of `CCN(CC1CCN(C(C)(C)Cc2ccc(Cl)cc2)CC1)C(=O)c1cc2ccccc2[nH]1` [Compound 341], below 1.5 µM; in that of `COc1cccc(CN2CCC(CNC(=O)c3cc4ccccc4[nH]3)CC2)c1` [compound 292], above 10 µM.
Same read-out and setting: in the case of `CCN(CC1CCCNC1)C(=O)c1cc2cc(OC)c(OC)cc2[nH]1` (stereo not drawn) [compound 415] it was above 10 µM.
Still for that read-out and setting: in the case of `CCN(CC1CCCN(Cc2ccccc2)C1)C(=O)c1cc2ccccc2[nH]1` (stereo not drawn) [Compound 132] it was 1.5 to 4 µM.
As to `CCN(CC1CCCNC1)C(=O)c1cc2c(Cl)cc(Cl)cc2[nH]1` (stereo not drawn) [compound 416], the IC50 was above 10 µM.
Same read-out and setting: in the case of `CCN(CC1CCCCN1CCc1cccc(OC)c1)C(=O)c1cc2ccccc2[nH]1` (stereo not drawn) [Compound 224] it was 1.5 to 4 µM; in that of `CCN(CC1CCN(C2CCc3ccccc3C2)CC1)C(=O)c1cc2ccccc2[nH]1` (stereo not drawn) [Compound 211], 1.5 to 4 µM; in that of `CCN(CC1CCCN(CC(C)(C)c2cccc(OC(F)F)c2)C1)C(=O)c1cc2cc(OC(F)F)ccc2[nH]1` (stereo not drawn) [Compound 408], below 1.5 µM.
Same read-out and setting: in the case of `CCN(CC1CCCN(CCc2ccc(OC)cc2)C1)C(=O)c1cc2ccccc2[nH]1` (stereo not drawn) [Compound 127] it was below 1.5 µM.
Same read-out and setting: in the case of `CCN(CC1CCCN(c2ccc(OC)cc2)C1)C(=O)c1cc2ccccc2[nH]1` (stereo not drawn) [Compound 227] it was 1.5 to 4 µM.
Consider `CCN(CC1CCN(C(C)(C)Cc2ccccc2F)CC1)C(=O)c1cc2ccccc2[nH]1` [Compound 343], for which the concentration for half-maximal inhibition (IC50) was 1.5 to 4 µM.
For `COc1cccc(CCN2CCCC(CN(C)C(=O)c3cc4ccccc4[nH]3)C2)c1` (stereo not drawn) [Compound 217], the IC50 was below 1.5 µM.
On to `CCN(CC1CCCN(CCc2cccc(OC)c2)C1)C(=O)c1cc(C#N)c[nH]1` (stereo not drawn) [Compound 242], for which the IC50 lay within 1.5 to 4 µM.
The same measure, in the same setting: in the case of `O=C(NCC1CCN(Cc2ccccc2F)CC1)c1cc2ccccc2[nH]1` [compound 272] it was above 10 µM; in that of `CCN(CC1CCN(C(C)(C)Cc2cccc(F)c2OC)CC1)C(=O)c1cc2ccccc2[nH]1` [Compound 364], below 1.5 µM.
On the same count and under the same terms, in the case of `CCN(CC1CCCN(C(C)(C)c2ccc(OC)cc2)C1)C(=O)c1cc2ccccc2[nH]1` (stereo not drawn) [Compound 355] it was below 1.5 µM.
Same read-out and setting: in the case of `CCN(CC1CCCN(CCc2cccc(OC)c2)C1)C(=O)c1ccccc1` (stereo not drawn) [Compound 234] it was above 10 µM.
`CCN(CC1CCN(Cc2ccc(OC(F)F)cc2)CC1)C(=O)c1cc2cc(OC(F)F)ccc2[nH]1` [compound 311]: the half-inhibitory concentration (IC50) is 7 to 9.9 µM.
Same read-out and setting: in the case of `CCN(CC1CCCN(Cc2cc3ccccc3o2)C1)C(=O)c1cc2c(OC)cccc2[nH]1` (stereo not drawn) [Compound 204] it was below 1.5 µM.
On the same count and under the same terms, in the case of `COc1ccccc1CN1CCC(CNC(=O)c2cc3ccccc3[nH]2)CC1` [compound 273] it was 1.5 to 4 µM.
Take `CCN(CC1CCCN(CCc2cccc(OC)c2)C1)C(=O)c1nc2ccccc2n1C` (stereo not drawn) [Compound 240]: the IC50 is above 10 µM.
For the compound `CCN(CC1CCCN(CCc2cccc(OC)c2)C1)C(=O)c1nc2ccccc2o1` (stereo not drawn) [Compound 241], the IC50 is above 10 µM.
Same read-out and setting: in the case of `COc1cccc(CCN2CCCC(CNC(=O)c3cc4ccccc4[nH]3)C2)c1` (stereo not drawn) [Compound 125] it was below 1.5 µM.
Still for that read-out and setting: in the case of `CCN(CC1CCCN(C(C)(C)c2ccc(OC)cc2)C1)C(=O)c1cc2cc(Cl)ccc2[nH]1` (stereo not drawn) [Compound 357] it was below 1.5 µM; in that of `CCN(CC1CCCN(CCc2cccc(OC)c2)C1)C(=O)c1c[nH]c2ccccc12` (stereo not drawn) [Compound 232], below 1.5 µM.

Still in this assay, the particulars now being: inhibition of TDP-43 aggregation; PC12 TDP-43^Q331K::eGFP, 1 hour pre-treatment, 15 μM sodium arsenite for 23 hours; 10-point dose response.
As to `CCN(CC1CCCN(C(C)(C)Cc2cccc(OC)c2)C1)C(=O)c1cc2cc(OC)ccc2[nH]1` (stereo not drawn) [Compound 334], the half-inhibitory concentration (IC50) is below 1.5 µM.
Still for that read-out and setting: in the case of `CCN(CC1CCCN(C(C)(C)Cc2cccc(OC(F)(F)F)c2)C1)C(=O)c1cc2cc(OC(F)(F)F)ccc2[nH]1` (stereo not drawn) [Compound 337] it was below 1.5 µM; in that of `CCN(CC1CCCN(C(C)(C)Cc2cccc(OC(F)(F)F)c2)C1)C(=O)c1cc2cc(OC(F)(F)F)ccc2[nH]1` (stereo not drawn) [compound 316], 4 to 7 µM; in that of `CCN(CC1CCCN(C(C)(C)Cc2cccc(OC(F)F)c2)C1)C(=O)c1cc2cc(OC(F)F)ccc2[nH]1` (stereo not drawn) [Compound 336], below 1.5 µM.

These data come from patent US20180305334A1, “COMPOUNDS, COMPOSITIONS AND METHODS OF USE AGAINST STRESS GRANULES” (Aquinnah Pharmaceuticals, Inc., priority 2015, published 2018).
